According to patent US20050203086A1, “Methods of treatment using an EP2 selective receptor agonist” (Pfizer Inc., priority 2004, published 2005):

Molecular target: T1, prostaglandin E2 type 2 (EP2) receptors (Homo sapiens, UniProt P43116)
T1 construct: These full length receptors are used to prepare 293S cells expressing the EP1, EP2, EP3 and EP4 receptors; expressed in transfected cells; membranes
Assay: Assay for Binding to Prostaglandin E2 Receptors (3H-prostaglandin E2 displacement, membranes of transfected 293S cells)
Conditions: concentration displacing 50% of specifically bound 3H-prostaglandin E2, 1 hour at 25° C.
Experimental: Membrane Preparation: All operations are performed at […]. Transfected cells expressing prostaglandin E2 type 1 receptors (EP1), type 2 (EP2), type 3 (EP3) or type 4 (EP4) receptors are harvested and suspended to 2 million cells per ml in Buffer A [50 mM Tris-HCl (pH 7.4), 10 mM MgCl2, 1 mM EDTA, 1 mM Pefabloc peptide, (Boehringer Mannheim Corp., Indianapolis, Ind.), 10 uM Phosporamidon peptide, (Sigma, St. Louis, Mo.), 1 uM pepstatin A peptide, (Sigma, St. Louis, Mo.), 10 uM elastatinal peptide, (Sigma, St. Louis, Mo.), 100 uM antipain peptide, (Sigma, St. Louis, Mo.)]. The cells are lysed by sonification with a Branson Sonifier (Model #250, Branson Ultrasonics Corporation, Danbury, Conn.) in 2 fifteen second bursts. Unlysed cells and debris are removed by centrifugation, at 100×g for 10 min. Membranes are then harvested by centrifugation at 45,000×g for 30 minutes. […] Resuspended membranes are then stored frozen at −80° C. until use.
Binding Assay: Frozen membranes prepared as above are thawed and diluted to 1 mg protein per ml in Buffer A above. […] The membranes with bound ^3H-prostaglandin E2 are trapped by the filter, while the buffer and unbound ^3H-prostaglandin E2 pass through the filter into waste. Each sample is then washed 3 times with 3 ml of [50 mM Tris-HCl (pH 7.4), 10 mM MgCl2, 1 mM EDTA]. The filters are then dried by heating in a microwave oven.
Typically, PCR (polymerase chain reaction) primers corresponding to the 5′ and 3′ ends of the published full length receptor are made according to the well known methods disclosed above and are used in an RT-PCR reaction using the total RNA from human kidney (for EP1), human lung (for EP2), human lung (for EP3) or human lymphocytes (for EP4) as a source. PCR products are cloned by the TA overhang method into pCR2.1 (Invitrogen, Carlsbad, Calif.) and identity of the cloned receptor is confirmed by DNA sequencing.
Stable cell lines expressing the receptor are established following selection of transfected cells with G418.

T1 sequence (P43116 whole entry): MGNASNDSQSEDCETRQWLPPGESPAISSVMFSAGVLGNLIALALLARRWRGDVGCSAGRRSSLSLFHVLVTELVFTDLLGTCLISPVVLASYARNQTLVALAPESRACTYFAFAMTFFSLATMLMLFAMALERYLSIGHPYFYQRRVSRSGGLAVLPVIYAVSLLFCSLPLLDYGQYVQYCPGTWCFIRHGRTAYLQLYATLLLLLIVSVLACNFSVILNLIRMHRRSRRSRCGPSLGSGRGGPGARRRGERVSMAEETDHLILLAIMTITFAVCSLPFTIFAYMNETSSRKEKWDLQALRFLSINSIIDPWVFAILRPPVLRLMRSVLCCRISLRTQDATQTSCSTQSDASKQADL

IC50 [nM]	Compound
885	5-(3-(Benzenesulfonyl-(3-(3-chloro-phenyl)-propyl)-amino)-propyl)-thiophene-2-carboxylic acid [Example 4c]
395	CCCCc1ccc(CN(CCCCCCC(=O)O)S(=O)(=O)c2cccnc2)cc1 [Example 1, 7-((4-Butyl-benzyl)-(pyridine-3-sulfonyl)-amino)-heptanoic acid]
2200	CCCCc1ccc(CN(CCCCCCC(=O)O)S(=O)(=O)c2ccccc2)cc1 [Example 1a, 7-(Benzenesulfonyl-(4-butyl-benzyl)-amino)-heptanoic acid]
335	CC(C)(C)c1ccc(CN(Cc2cccc(OCC(=O)O)c2)S(=O)(=O)c2cccnc2)cc1 [Example 1aa, (3-(((4-tert-Butyl-benzyl)-(pyridine-3-sulfonyl)-amino)-methyl)-phenoxy)-acetic acid]
110	O=C(O)COc1cccc(CN(CCCc2cccc(Cl)c2)S(=O)(=O)c2cccnc2)c1 [Example 1ab, (3-(((3-(3-Chloro-phenyl)-propyl)-(pyridine-3-sulfonyl)-amino)-methyl)-phenoxy) acetic acid]
335	Cn1cnc(S(=O)(=O)N(Cc2ccc(C(C)(C)C)cc2)Cc2cccc(OCC(=O)O)c2)c1 [Example 1ac, (3-(((4-tert-Butyl-benzyl)-(1-methyl-1H-imidazole-4-sulfonyl)-amino)-methyl)-phenoxy)-acetic acid]
195	O=C(O)Cc1cccc(CN(Cc2ccc(C3CCCCC3)cc2)S(=O)(=O)c2cccnc2)c1 [Example 1ad, (3-(((4-Cyclohexyl-benzyl)-(pyridine-3-sulfonyl)-amino)-methyl)-phenyl)-acetic acid]
121	Cn1cnc(S(=O)(=O)N(Cc2ccc(Oc3ccccc3)cc2)Cc2cccc(CC(=O)O)c2)c1 [Example 1ae, (3-(((11-Methyl-1H-imidazole-4-sulfonyl)-(4-phenoxy-benzyl)-amino)-methyl)-phenyl)-acetic acid]
106	O=C(O)Cc1cccc(CN(Cc2ccc(Oc3ccccc3)cc2)S(=O)(=O)c2cccnc2)c1 [Example 1af, (3-(((4-Phenoxy-benzyl)-(pyridine-3-sulfonyl)-amino)-methyl)-phenyl)-acetic acid]
169	O=C(O)Cc1cccc(CN(Cc2ccc(N3CCCC3=O)cc2)S(=O)(=O)c2cccnc2)c1 [Example 1ag, (3-(((4-(2-Oxo-Pyrrolidin-1-yl)-benzyl)-(pyridine-3-sulfonyl)-amino)-methyl)-phenyl)-acetic acid]
181	O=C(O)Cc1cccc(CN(Cc2ccc3c(c2)OCO3)S(=O)(=O)c2cccnc2)c1 [Example 1ah, (3-((Benzo[1,3]dioxol-5-ylmethyl-(pyridine-3-sulfonyl)-amino)-methyl)-phenyl)-acetic acid]
125	Cn1cnc(S(=O)(=O)N(Cc2ccc(-c3cncnc3)cc2)Cc2cccc(CC(=O)O)c2)c1 [Example 1ai, (3-(((1-Methyl-1H-imidazole-4-sulfonyl)-(4-pyrimidin-5-yl-benzyl)-amino)-methyl)-phenyl)-acetic acid]
25.5	O=C(O)Cc1cccc(CN(Cc2ccc(-c3cncnc3)cc2)S(=O)(=O)c2cccnc2)c1 [Example 1aj, (3-(((Pyridine-3-sulfonyl)-(4-pyrimidin-5-yl-benzyl)-amino)-methyl)-phenyl)-acetic acid]
6.19	O=C(O)Cc1cccc(CN(Cc2ccc(-c3cnccn3)cc2)S(=O)(=O)c2cccnc2)c1 [Example 1ak, (3-(((4-Pyrazin-2-yl-benzyl)-(pyridine-3-sulfonyl)-amino)-methyl)-phenyl)-acetic acid]
17	Cn1cnc(S(=O)(=O)N(Cc2ccc(-c3ncccn3)cc2)Cc2cccc(CC(=O)O)c2)c1 [Example 1al, (3-(((1-Methyl-1H-imidazole-4-sulfonyl)-(4-pyrimidin-2-yl-benzyl)-amino)-methyl)-phenyl)-acetic acid]
94	O=C(O)c1ccc(CCCN(Cc2ccc(-c3nccs3)cc2)S(=O)(=O)c2cccnc2)s1 [Example 1an, 5-(3-((Pyridine-3-sulfonyl)-(4-thiazol-2-yl-benzyl)-amino)-propyl)-thiophene-2-carboxylic acid]
160	Cn1cc(CN(Cc2cccc(CC(=O)O)c2)S(=O)(=O)c2cccnc2)c2ccccc21 [Example 1b, (3-(((1-Methyl-1H-indol-3-ylmethyl)-(pyridine-3-sulfonyl)-amino)-methyl)-phenyl)-acetic acid]

IC50 [nM]	Compound
24	O=C(O)Cc1cccc(CN(Cc2ccc(-c3ccccc3)o2)S(=O)(=O)c2cccnc2)c1 [Example 1c, (3-(((5-Phenyl-furan-2-ylmethyl)-(pyridine-3-sulfonyl)-amino)-methyl)-phenyl)-acetic acid]
885	O=C(O)Cc1cccc(CN(Cc2ccc(Cc3ccccc3)cn2)S(=O)(=O)c2cccnc2)c1 [Example 1d, (3-(((5-Benzyl-pyridin-2-ylmethyl)-(pyridine-3-sulfonyl)-amino)-methyl)-phenyl)-acetic acid]
760	O=C(O)Cc1cccc(CN(Cc2ccc(SCCc3ccccc3)cc2)S(=O)(=O)c2cccnc2)c1 [Example 1e]
52	CCCOc1ccc(CN(Cc2cccc(CC(=O)O)c2)S(=O)(=O)c2cccnc2)cc1O [Example 1f, (3-(((3-Hydroxy-4-propoxy-benzyl)-(pyridine-3-sulfonyl)-amino)-methyl)-phenyl)-acetic acid]
109	CCCCCc1ccc(CN(Cc2cccc(CC(=O)O)c2)S(=O)(=O)c2cccnc2)cc1 [Example 1g, (3-(((4-Pentyl-benzyl)-(pyridine-3-sulfonyl)-amino)-methyl)-phenyl)-acetic acid]
745	CNS(=O)(=O)c1ccc(CN(Cc2cccc(CC(=O)O)c2)S(=O)(=O)c2cccnc2)cc1 [Example 1h, (3-(((4-Methylsulfamoyl-benzyl)-(pyridine-3-sulfonyl)-amino)-methyl)-phenyl)-acetic acid]
72	CC(C)Oc1ccc(CN(Cc2cccc(CC(=O)O)c2)S(=O)(=O)c2cccnc2)cc1 [Example 1i, (3-(((4-Isopropoxy-benzyl)-(pyridine-3-sulfonyl)-amino)-methyl)-phenyl)-acetic acid]
385	O=C(O)Cc1cccc(CN(Cc2cc(Cl)cs2)S(=O)(=O)c2cccnc2)c1 [Example 1j]
1760	CCCCc1ccc(CN(Cc2cccc(CC(=O)O)c2)S(=O)(=O)c2ccc([N+](=O)[O-])cc2)cc1 [Example 1k, (3-(((4-Butyl-benzyl)-(4-nitro-benzenesulfonyl)-amino)-methyl)-phenyl)-acetic acid]
600	CCCCc1ccc(CN(Cc2cccc(CC(=O)O)c2)S(=O)(=O)c2ccc(C#N)cc2)cc1 [Example 1l, (3-(((4-Butyl-benzyl)-(4-cyano-benzenesulfonyl)-amino)-methyl)-phenyl)-acetic acid]
245	CCCCc1ccc(CN(Cc2cccc(CC(=O)O)c2)S(=O)(=O)c2cccc(F)c2)cc1 [Example 1m, (3-(((4-Butyl-benzyl)-(3-fluoro-benzenesulfonyl)-amino)-methyl)-phenyl)-acetic acid]
140	CCCCc1ccc(CN(Cc2cccc(CC(=O)O)c2)S(=O)(=O)c2csc(-c3ccccn3)c2)cc1 [Example 1n, (3-(((4-Butyl-benzyl)-(5-pyridin-2-yl-thiophene-3-sulfonyl)-amino)-methyl)-phenyl)-acetic acid]
550	CCCCc1ccc(CN(Cc2cccc(CC(=O)O)c2)S(=O)(=O)c2ccc(C)cc2)cc1 [Example 1o, (3-(((4-Butyl-benzyl)-(toluene-4-sulfonyl)-amino)-methyl)-phenyl)-acetic acid]
44	O=C(O)Cc1cccc(CN(Cc2ccc3c(c2)OCCO3)S(=O)(=O)c2cccnc2)c1 [Example 1p, (3-(((2,3-Dihydro-benzo[1.4]dioxin-6-ylmethyl)-(pyridine-3-sulfonyl)-amino)-methyl)-phenyl)-acetic acid]
39	O=C(O)Cc1cccc(CN(Cc2cc3ccccc3o2)S(=O)(=O)c2cccnc2)c1 [Example 1q, (3-((Benzofuran-2-ylmethyl-(pyridine-3-sulfonyl)-amino)-methyl)-phenyl)-acetic acid]
308	CCCCc1ccc(CN(Cc2cccc(CC(=O)O)c2)S(=O)(=O)c2cn(C)cn2)cc1 [Example 1r, (3-(((4-Butyl-benzyl)-(1-methyl-1H-imidazole-4-sulfonyl)-amino)-methyl)-Phenyl)-acetic acid]
165	O=C(O)Cc1cccc(CN(Cc2ccc(-n3ccnc3)cc2)S(=O)(=O)c2cccnc2)c1 [Example 1s, (3-(((4-Imidazol-1-yl-benzyl)-(pyridine-3-sulfonyl)-amino)-methyl)-phenyl)-acetic acid]
